For experiment [1], the system named is panel of 48 cancer-derived cell lines. Kind of experiment: Proliferation assay on diverse cancer cell line panel, CellTiter-Glo, 72 hours. It counts as cell-based. As to conditions: for pIC50: 72 hours, listed as A-2. Here is the method:
Screening against diverse cancer cell lines was performed to identify tumour types displaying sensitivity to atropisomers A-1 and A-2. A panel of 48 cancer-derived cell lines was screened in a high-throughput proliferation assay using dilutions of atropisomers A-1/A-2. Cell lines that were screened included those representing cancer of the pancreas, large intestine/colorectum, lung, brain and nerves, and lymphoma and leukaemia cell lines. Cell lines were treated with serial half-log dilutions of compound and assayed 72 hours later for proliferation using CellTiter-Glo Assay (Promega). IC50 values were calculated by fitting the dose-response data using a nonlinear regression model.
For orientation: Cellular ATP, detected with luciferase, serves as a proxy for viable cell number.

The subject of experiment [2] is HeLa cells stably expressing a Centrin1-GFP fusion protein. Kind of experiment: Centriole number in Centrin1-GFP HeLa cells. It counts as cell-based. As to conditions: 0.02 μM, 72 hours. As for the experimental part:
The effects of A-1 and A-2 on centrosome function were therefore investigated further. HeLa cells stably expressing a Centrin1-GFP fusion protein were seeded into 96-well plates overnight. Cells were treated with atropisomer A-1 or atropisomer A-2 (at concentrations of 0.02 μM in DMSO) or DMSO control for 72 hours and then imaged using a fluorescence microscope. Multiple cell fields were captured for each treatment condition, and the images were subsequently analysed manually. Centrin1-GFP specifically marks centrioles as discrete foci, and therefore can be used to quantitate centriole number per cell. Thus, for each treatment condition, 100 cells were analysed and the number of centrioles present in each cell was recorded. The data were then separated into bins (no centrioles, 1 centriole, 2 centrioles, and greater than 2 centrioles) and are shown in FIG. 11.

In experiment [3] the target is T1, panel of ninety-seven kinases (Homo sapiens, UniProt Q9HBH9).
T1 construct: purchased DiscoverX; host or cells: T7 phage in E. coli (BL21-derived) for most kinases; HEK-293 for the rest
Briefly: DiscoverX KinomeScreen kinase selectivity competition binding assay. As to conditions: MKNK2; read-out: % Ctrl @ 3 μM. The essentials:
(§1)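 Site-directed competition binding: kinase (T7 phage-tagged or HEK-293-expressed, DNA-tagged) captured on immobilized biotinylated ligand beads, with compound at 3000 nM. Bound kinase eluted and quantified by qPCR. Reported as % Ctrl, with DMSO as 100% and control compound as 0%.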

Experiment [4] concerns the target T2, panel of ninety-seven kinases (Homo sapiens, UniProt Q8IYT8).
T2 construct: purchased DiscoverX; host or cells: T7 phage in E. coli (BL21-derived) for most kinases; HEK-293 for the rest
The experiment is described as above. As to conditions: ULK2; read-out: % Ctrl @ 3 μM. The essentials:
as §1

Experiment [5] concerns the target T3, panel of ninety-seven kinases (Homo sapiens, UniProt Q13873).
T3 construct: purchased DiscoverX; host or cells: T7 phage in E. coli (BL21-derived) for most kinases; HEK-293 for the rest
Described as above. As to conditions: BMPR2; read-out: % Ctrl @ 3 μM. An outline of the steps:
as §1

Experiment [6] has as its target T4, panel of ninety-seven kinases (Homo sapiens, UniProt Q02763).
T4 construct: purchased DiscoverX; host or cells: T7 phage in E. coli (BL21-derived) for most kinases; HEK-293 for the rest
The description is as above. As to conditions: TEK; read-out: % Ctrl @ 3 μM. An outline of the steps: as §1

Experiment [7] addresses T5, panel of ninety-seven kinases (Homo sapiens, UniProt P07949).
T5 construct: purchased DiscoverX; host or cells: T7 phage in E. coli (BL21-derived) for most kinases; HEK-293 for the rest
The experiment is described as above. As to conditions: RET; read-out: % Ctrl @ 3 μM. An outline of the steps: as §1

In experiment [8] the target is T6, panel of ninety-seven kinases (Homo sapiens, UniProt P43403).
T6 construct: purchased DiscoverX; host or cells: T7 phage in E. coli (BL21-derived) for most kinases; HEK-293 for the rest
The description is as above. As to conditions: ZAP70; read-out: % Ctrl @ 3 μM. The essentials:
as §1

The next experiment relates to U87MG cells. Kind of experiment: Mitotic phenotype study in U87MG cells. The experiment is classed as cell-based, human. As to conditions: 0.03 μM, listed as A-2. As for the experimental part: Distinct mitotic phenotypes are induced following inhibition of PLK1 and PLK4 in cells. […] Centriole assembly is controlled by PLK4, with inhibitors inducing a multipolar spindle phenotype due to centrosome defects which results in abnormal cyokinesis (Wong et al., 2015. Science 348(6239); 1155-1160). Cells were plated at 10 000/well in 96-well plates and incubated overnight. The following day atropisomer A-2 stocks in DMSO were diluted in medium then added to cells with a maximum final DMSO concentration on cells of 0.2%. Cells were incubated with the compound for 24 hours then fixed in 3.7% formaldehyde. Cells were permeabilised with 0.1% Triton X-100 then incubated with anti-phospho-histone H3 (Ser10) antibody (Abcam). The cells were washed with PBS then incubated with AlexaFluor 488 labelled goat anti-rabbit IgG (Invitrogen) in the presence of 4 ug/mL Hoechst 33342 (Invitrogen). Cells were washed in PBS then imaged on an Arrayscan VTi HCS instrument using the Target Activation V4 Bioapplication. A user-defined threshold was applied to identify mitotic cells based on the intensity of phospho-histone H3 staining. In a separate study, following the above protocol and using single compound concentrations of 0.03 μM for each of atropisomer A-1 and atropisomer A-2, the frequency of observed mitotic phenotypes in U87MG cells was manually assessed and classified into the following phenotypes: non-congressed chromosomes, multipolar spindles/abnormal cytokinesis, monopolar spindles, normal prometaphase, normal metaphase for each of A-1 and A-2.

The structures appear in SMILES notation. pIC50: −log10 of the molar value.

T1 sequence (Q9HBH9 whole entry): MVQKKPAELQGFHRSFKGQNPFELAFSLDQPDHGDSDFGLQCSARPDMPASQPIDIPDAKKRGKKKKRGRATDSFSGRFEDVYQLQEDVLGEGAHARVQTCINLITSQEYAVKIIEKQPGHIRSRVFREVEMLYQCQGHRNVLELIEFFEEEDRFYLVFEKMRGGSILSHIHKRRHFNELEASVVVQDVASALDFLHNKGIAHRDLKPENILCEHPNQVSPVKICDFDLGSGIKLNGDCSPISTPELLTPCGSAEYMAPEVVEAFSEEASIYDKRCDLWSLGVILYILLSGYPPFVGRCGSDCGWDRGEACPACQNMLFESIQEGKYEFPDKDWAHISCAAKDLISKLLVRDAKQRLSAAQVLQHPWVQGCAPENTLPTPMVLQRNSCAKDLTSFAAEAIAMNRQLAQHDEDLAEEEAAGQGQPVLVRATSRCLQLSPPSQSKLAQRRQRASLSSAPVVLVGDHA
T2 sequence (Q8IYT8 whole entry): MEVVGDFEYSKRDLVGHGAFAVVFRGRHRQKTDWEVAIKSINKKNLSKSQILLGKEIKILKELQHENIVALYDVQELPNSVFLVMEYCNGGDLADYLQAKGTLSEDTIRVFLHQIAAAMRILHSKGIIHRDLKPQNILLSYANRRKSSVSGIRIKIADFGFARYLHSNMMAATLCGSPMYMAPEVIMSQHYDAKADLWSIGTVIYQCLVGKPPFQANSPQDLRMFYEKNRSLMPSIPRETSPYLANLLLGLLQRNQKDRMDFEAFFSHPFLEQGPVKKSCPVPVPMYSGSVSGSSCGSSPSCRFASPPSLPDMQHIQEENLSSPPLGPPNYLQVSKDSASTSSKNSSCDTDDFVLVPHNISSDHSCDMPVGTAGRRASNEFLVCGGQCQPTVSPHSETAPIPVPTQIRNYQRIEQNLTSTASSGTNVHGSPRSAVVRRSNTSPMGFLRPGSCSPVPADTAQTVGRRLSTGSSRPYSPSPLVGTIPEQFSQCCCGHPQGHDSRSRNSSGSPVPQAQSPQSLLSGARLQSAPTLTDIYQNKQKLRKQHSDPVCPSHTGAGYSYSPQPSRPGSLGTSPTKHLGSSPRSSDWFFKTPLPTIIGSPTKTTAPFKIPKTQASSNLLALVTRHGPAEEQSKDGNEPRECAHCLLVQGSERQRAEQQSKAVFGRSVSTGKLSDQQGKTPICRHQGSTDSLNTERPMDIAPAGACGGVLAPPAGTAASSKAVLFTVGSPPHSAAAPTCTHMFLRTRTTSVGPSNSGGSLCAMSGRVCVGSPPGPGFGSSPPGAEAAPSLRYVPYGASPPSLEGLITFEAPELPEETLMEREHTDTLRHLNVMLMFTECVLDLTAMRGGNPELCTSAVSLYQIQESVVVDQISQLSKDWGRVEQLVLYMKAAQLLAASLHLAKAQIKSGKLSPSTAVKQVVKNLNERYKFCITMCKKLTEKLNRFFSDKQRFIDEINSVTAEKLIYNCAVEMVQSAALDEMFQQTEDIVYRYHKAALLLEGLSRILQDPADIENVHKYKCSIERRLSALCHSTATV
T4 sequence (Q02763 23-1124): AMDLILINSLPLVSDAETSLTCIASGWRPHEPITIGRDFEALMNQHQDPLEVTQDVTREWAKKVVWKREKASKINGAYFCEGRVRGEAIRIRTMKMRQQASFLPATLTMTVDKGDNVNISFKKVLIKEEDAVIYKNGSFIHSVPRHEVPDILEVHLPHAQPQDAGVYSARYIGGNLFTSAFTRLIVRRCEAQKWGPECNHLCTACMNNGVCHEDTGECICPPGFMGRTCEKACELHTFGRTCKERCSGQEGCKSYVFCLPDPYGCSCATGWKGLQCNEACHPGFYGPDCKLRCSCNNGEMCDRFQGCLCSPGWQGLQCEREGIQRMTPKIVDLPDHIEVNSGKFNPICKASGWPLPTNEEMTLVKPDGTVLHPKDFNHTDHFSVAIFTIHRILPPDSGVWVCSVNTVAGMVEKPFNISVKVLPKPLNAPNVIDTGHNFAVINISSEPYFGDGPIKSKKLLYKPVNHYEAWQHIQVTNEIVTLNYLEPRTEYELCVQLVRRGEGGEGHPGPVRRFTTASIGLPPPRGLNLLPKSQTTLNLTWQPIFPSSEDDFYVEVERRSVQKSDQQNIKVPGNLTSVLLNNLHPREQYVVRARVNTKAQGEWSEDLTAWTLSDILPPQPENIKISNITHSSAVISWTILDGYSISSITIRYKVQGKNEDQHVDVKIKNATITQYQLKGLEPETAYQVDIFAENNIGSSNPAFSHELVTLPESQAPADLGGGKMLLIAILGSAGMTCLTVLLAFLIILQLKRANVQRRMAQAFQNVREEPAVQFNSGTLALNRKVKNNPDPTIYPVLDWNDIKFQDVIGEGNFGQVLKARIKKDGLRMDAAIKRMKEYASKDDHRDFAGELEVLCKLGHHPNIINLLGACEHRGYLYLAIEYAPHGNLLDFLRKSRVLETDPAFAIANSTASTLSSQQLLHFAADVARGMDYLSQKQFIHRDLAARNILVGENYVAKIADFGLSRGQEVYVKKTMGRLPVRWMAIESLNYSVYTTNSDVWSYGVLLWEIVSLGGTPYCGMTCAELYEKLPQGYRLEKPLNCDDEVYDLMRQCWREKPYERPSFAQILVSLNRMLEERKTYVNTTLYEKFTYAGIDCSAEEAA
T3 sequence (Q13873 27-1038): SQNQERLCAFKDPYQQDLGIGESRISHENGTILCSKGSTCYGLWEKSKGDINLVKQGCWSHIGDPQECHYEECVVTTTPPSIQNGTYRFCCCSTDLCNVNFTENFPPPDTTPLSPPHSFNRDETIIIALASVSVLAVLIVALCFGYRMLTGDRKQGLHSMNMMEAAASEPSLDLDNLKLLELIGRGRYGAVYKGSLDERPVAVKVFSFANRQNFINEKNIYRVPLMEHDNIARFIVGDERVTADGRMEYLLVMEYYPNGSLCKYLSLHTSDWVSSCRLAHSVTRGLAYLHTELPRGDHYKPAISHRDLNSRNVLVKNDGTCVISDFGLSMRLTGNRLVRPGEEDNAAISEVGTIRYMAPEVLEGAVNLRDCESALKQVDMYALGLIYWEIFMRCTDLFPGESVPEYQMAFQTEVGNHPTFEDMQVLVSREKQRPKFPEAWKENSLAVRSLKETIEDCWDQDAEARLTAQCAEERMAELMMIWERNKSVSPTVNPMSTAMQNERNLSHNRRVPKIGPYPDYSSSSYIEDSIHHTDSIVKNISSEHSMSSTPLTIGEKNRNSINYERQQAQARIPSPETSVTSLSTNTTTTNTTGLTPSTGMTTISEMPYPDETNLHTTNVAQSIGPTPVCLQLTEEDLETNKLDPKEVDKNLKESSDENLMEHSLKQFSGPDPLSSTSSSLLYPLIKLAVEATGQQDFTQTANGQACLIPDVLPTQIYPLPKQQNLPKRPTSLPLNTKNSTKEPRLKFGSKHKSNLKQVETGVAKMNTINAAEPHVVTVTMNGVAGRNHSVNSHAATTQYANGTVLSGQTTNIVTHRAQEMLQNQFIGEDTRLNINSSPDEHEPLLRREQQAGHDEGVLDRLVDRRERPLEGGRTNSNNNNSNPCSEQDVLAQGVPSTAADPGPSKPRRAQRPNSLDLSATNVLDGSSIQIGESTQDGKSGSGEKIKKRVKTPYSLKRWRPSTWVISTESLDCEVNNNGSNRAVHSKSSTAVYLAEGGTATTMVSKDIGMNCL
T6 sequence (P43403 whole entry): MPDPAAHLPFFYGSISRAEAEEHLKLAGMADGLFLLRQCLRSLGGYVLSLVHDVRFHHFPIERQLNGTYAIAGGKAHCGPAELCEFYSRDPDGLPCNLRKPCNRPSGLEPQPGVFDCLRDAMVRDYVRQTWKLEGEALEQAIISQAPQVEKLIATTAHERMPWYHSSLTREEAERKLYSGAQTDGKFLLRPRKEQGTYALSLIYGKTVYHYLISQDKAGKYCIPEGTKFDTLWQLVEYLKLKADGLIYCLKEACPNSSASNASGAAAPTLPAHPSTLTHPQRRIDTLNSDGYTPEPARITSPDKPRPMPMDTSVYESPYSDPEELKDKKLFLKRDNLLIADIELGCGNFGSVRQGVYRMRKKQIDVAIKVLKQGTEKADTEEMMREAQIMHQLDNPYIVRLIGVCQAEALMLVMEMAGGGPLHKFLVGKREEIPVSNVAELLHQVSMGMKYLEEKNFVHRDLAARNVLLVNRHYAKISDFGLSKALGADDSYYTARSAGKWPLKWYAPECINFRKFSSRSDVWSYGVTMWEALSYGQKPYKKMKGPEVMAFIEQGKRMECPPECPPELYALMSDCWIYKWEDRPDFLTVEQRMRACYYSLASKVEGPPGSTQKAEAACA

What is called pIC50 is −log10 of the IC50, conventionally taken in molar units. Read a high pIC50 as a small IC50. In the case of `CN(C)CCNC(=O)c1ccc(-c2ccc(-c3ccc(Cl)cc3)n2-c2ccccc2C(F)(F)F)cc1` (single isomer, unassigned) [Atropisomer A-2, 4-[5-(4-chlorophenyl)-1-[2-(trifluoromethyl)phenyl]pyrrol-2-yl]-N-[2-(dimethylamino)ethyl]benzamide], the pIC50 in experiment [1] (HOT 116, Large intestine/Colorectum) was 6.64; in experiment [1] (ML-2, Blood/Leukaemia) it was 6.74; in experiment [1] (SVV620, Large intestine/Colorectum), 6.72. In addition, the “cell growth inhibition compared with atropisomer A-1” value in [1] (all of the cell lines of the panel) was “significantly more active”. The “PLK4 inhibition phenotypes (centriole number)” value in experiment [2] was “exhibits evidence of PLK4 inhibition phenotypes”. For the same compound, the percent of control kinase binding to immobilized ligand at 3 µM in experiment [3] was 85%; in experiment [4], 93%; in [5] it was 82%; in experiment [6] it was 99%; in [7], 95%; in [8] it was 92%. The “cells with abnormal cytokinesis” value with U87MG cells was 70%. Further, the “cells with non-congressed chromosomes” value with U87MG cells turned out to be 13%. Further, in the experiment on U87MG cells, the “cells with normal mitotic phenotype” value is reported as 17%.

The record behind these values is patent US20220348565A1, “PHARMACEUTICAL COMPOUNDS” (SENTINEL ONCOLOGY LIMITED, priority 2019, published 2022).
